Experimental data reported in patent US10517889B2, “Modulators of SMAD7 expression” (Ionis Pharmaceuticals, Inc., priority 2017, dated 2019).
Strand notation (5' to 3'): a small letter for the sugar, then the base; units joined by * are phosphorothioate-linked, units joined directly phosphodiester-linked; [ ] holds rarer units or linkages, { } end groups; capitals alone tell only the bases. e = 2'-O-(2-methoxyethyl) (MOE); [5mC] = 5-methylcytosine; d = 2'-deoxy (DNA)

What was measured:
human SMAD7 mRNA [1] = test: Dose-dependent inhibition of human SMAD7 mRNA expression in A431 cells, oligonucleotide added without transfection (Example 5, Study 1); type: cell-based; settings: approximately 48 hours
Method: The newly designed compounds disclosed herein are cEt-modified antisense oligonucleotides. […] The studies described below show a comparison of select cEt-modified gapmers and ION0736697/Mongersen.
A431 cells were plated in collagen I-coated 96-well plates in DMEM with […]. Immediately after plating, 0.08 μM, 0.25 μM, 0.74 μM, 2.22 μM, 6.67 μM, or 20.00 μM concentrations of antisense oligonucleotide were added. The plates were shaken briefly before incubating at 37° C. and 10% CO2. After a treatment period of approximately 48 hours, the cells were washed and lyzed and RNA on 384-well Pall plates with DNase I treatment. SMAD7 mRNA levels were measured by quantitative real-time PCR. Primer probe set RTS5062 was used to measure human SMAD7 mRNA levels. SMAD7 mRNA levels were adjusted according to total RNA content, as measured by RIBOGREEN®. Results are presented as percent inhibition of SMAD7 mRNA expression, relative to untreated control cells.
All Ionis oligonucleotides had greater potency than ION 736697/Mongersen.

murine Smad7 mRNA = test: Dose-dependent inhibition of murine Smad7 mRNA in bEND cells, electroporation (Example 5, Study 2); type: cell-based, mouse; settings: electroporation; for % inhibition of SMAD7 mRNA expression: approximately 16 hours
Method: Many of the Ionis designed oligonucleotides as well as ION 736697/Mongersen are complementary to mouse Smad7 mRNA. […] After a treatment period of approximately 16 hours, the cells were washed and lyzed and RNA on 384-well Pall plates with DNase I treatment. Smad7 mRNA levels were measured by quantitative real-time PCR. Primer probe set RTS1114 (forward sequence […], designated herein as SEQ ID NO: 8; reverse sequence […], designated herein as SEQ ID NO: 9; probe sequence […], designated herein as SEQ ID NO: 10) was used to measure murine Smad7 mRNA levels. Smad7 mRNA levels were adjusted according to total RNA content, as measured by RIBOGREEN®. Results are presented as percent inhibition of Smad7 mRNA expression, relative to untreated control cells.
Many of the Ionis oligonucleotides had greater potency than ION 736697/Mongersen.

[2] = system: human peripheral blood mononuclear cells (PBMCs); test: Human PBMC activation assay, cytokine levels (IL-10, IL-6, MCP-1, TNF-α) in supernatant after 24 hours (Example 9); settings: human PBMC supernatant after 24 hours
human SMAD7 mRNA [3] = test: Antisense inhibition of human SMAD7 mRNA expression in Hep3B cells by 5-10-5 MOE gapmers, single concentration, electroporation, RT-PCR (Example 1, Study 1 and 2); type: cell-based
In short: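 Hep3B cells (20,000/well) electroporated with 5-10-5 MOE gapmer at 5,000 nM or 15,000 nM for approximately 24 h. SMAD7 mRNA quantified by real-time PCR with primer probe set RTS5062 and normalized to RIBOGREEN total RNA. Values are percent inhibition relative to untreated controls.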

human SMAD7 mRNA [4] = test: Antisense inhibition of human SMAD7 mRNA expression in Hep3B cells by 3-10-3 cEt gapmers, 10,000 nM, electroporation (Example 2); type: cell-based; settings: Hep3B cells, electroporation with 10,000 nM antisense oligonucleotide, approximately 24 hours, primer probe set RTS5062, relative to untreated control cells
In short: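 Hep3B cells (20,000 per well) were electroporated with 10,000 nM 16-mer 3-10-3 cEt gapmer (phosphorothioate, 5-methylcytosine). After about 24 h, SMAD7 mRNA was quantified by qRT-PCR with primer probe set RTS5062, normalised to RIBOGREEN total RNA, and expressed as percent inhibition versus untreated cells.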

human SMAD7 mRNA [5] = test: Dose-dependent inhibition of human SMAD7 mRNA expression in Hep3B cells (Example 3, Study 1 and 2); type: cell-based; settings: electroporation; for % inhibition of SMAD7 mRNA expression: approximately 16 hours
In short: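 Hep3B cells, 20,000 per well, electroporated with antisense oligonucleotide at 0.31, 1.25, 5.00 or 20.00 μM (first series) or 0.74, 2.22, 6.67 or 20.00 μM (second series). After ~16 h, SMAD7 mRNA measured by RT-qPCR (RTS5062), normalised to RIBOGREEN total RNA. Percent inhibition vs untreated cells; IC50 derived.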

[6] = electroporation, 15,000 nM antisense oligonucleotide (Study 2), 5-10-5 MOE gapmers targeting SEQ ID NO: 1 and 2
[7] = 312.5 nM, Study 1, relative to untreated control cells

## 736697 (antisense GTCGCCCCTTCTCCCCGCAGC; chemistry not fully specified) [compound 736697]
Human SMAD7 mRNA [1]; 0.08 μM
  % inhibition of SMAD7 mRNA expression: 14%
Human SMAD7 mRNA [1]; 0.25 μM
  % inhibition of SMAD7 mRNA expression: 20%
Human SMAD7 mRNA [1]; 0.74 μM
  % inhibition of SMAD7 mRNA expression: 24%
Human SMAD7 mRNA [1]; 2.22 μM
  % inhibition of SMAD7 mRNA expression: 13%
Human SMAD7 mRNA [1]; 6.67 μM
  % inhibition of SMAD7 mRNA expression: 34%
Human SMAD7 mRNA [1]; 20.00 μM
  % inhibition of SMAD7 mRNA expression: 37%
Human SMAD7 mRNA [1]; SMAD7 mRNA
  IC50: > 20 µM
Murine Smad7 mRNA; 0.25 μM
  % inhibition of SMAD7 mRNA expression: 1%
Murine Smad7 mRNA; 0.74 μM
  % inhibition of SMAD7 mRNA expression: 1%
Murine Smad7 mRNA; 2.22 μM
  % inhibition of SMAD7 mRNA expression: 0%
Murine Smad7 mRNA; 6.67 μM
  % inhibition of SMAD7 mRNA expression: 0%
Murine Smad7 mRNA; 20.00 μM
  % inhibition of SMAD7 mRNA expression: 0%
Murine Smad7 mRNA
  IC50: > 20 µM
[2]; 0.0128 μM oligonucleotide
  Levels of IL-6: 3.6 pg/mL
  Levels of IL-10: 2.1 pg/mL
  Levels of MCP-1: 297.6 pg/mL
  Levels of TNF-α: 2.8 pg/mL
[2]; 0.064 μM oligonucleotide
  Levels of IL-6: 5.3 pg/mL
  Levels of IL-10: 3.1 pg/mL
  Levels of MCP-1: 385.9 pg/mL
  Levels of TNF-α: 3.5 pg/mL
[2]; 0.32 μM oligonucleotide
  Levels of IL-6: 12.3 pg/mL
  Levels of IL-10: 3.5 pg/mL
  Levels of MCP-1: 681.3 pg/mL
  Levels of TNF-α: 5.5 pg/mL
[2]; 1.6 μM oligonucleotide
  Levels of IL-6: 15.5 pg/mL
  Levels of IL-10: 2.2 pg/mL
  Levels of MCP-1: 693.9 pg/mL
  Levels of TNF-α: 6.8 pg/mL
[2]; 8 μM oligonucleotide
  Levels of IL-6: 57.4 pg/mL
  Levels of IL-10: 4.2 pg/mL
  Levels of MCP-1: 2306.8 pg/mL
  Levels of TNF-α: 13.6 pg/mL
[2]; 40 μM oligonucleotide
  Levels of IL-6: 63.3 pg/mL
  Levels of IL-10: 4.7 pg/mL
  Levels of MCP-1: 2974.9 pg/mL
  Levels of TNF-α: 28.1 pg/mL
[2]; 200 μM oligonucleotide
  Levels of IL-6: 64.8 pg/mL
  Levels of IL-10: 4.0 pg/mL
  Levels of MCP-1: 622.8 pg/mL
  Levels of TNF-α: 43.7 pg/mL

## 771576 (antisense eG*eG*eG*e[5mC]*eA*dG*dG*dA*dG*dA*dG*dA*d[5mC]*dA*d[5mC]*e[5mC]*eG*e[5mC]*eT*eT) [compound 771576]
Human SMAD7 mRNA [3]; electroporation with 15,000 nM antisense oligonucleotide (Study 2), 5-10-5 MOE gapmers targeting SEQ ID NO: 1 and 2
  % Inhibition of SMAD7 mRNA: 64%
Human SMAD7 mRNA [3]; [6]
  % inhibition of SMAD7 mRNA expression: 28%
Human SMAD7 mRNA [4]
  % Inhibition: 49%
  % inhibition of SMAD7 mRNA expression: 50%
Human SMAD7 mRNA [5]; [7]
  % inhibition of SMAD7 mRNA expression: 9%
Human SMAD7 mRNA [5]; 740 nM, Study 2, relative to untreated control cells
  % inhibition of SMAD7 mRNA expression: 0%
Human SMAD7 mRNA [5]; 1250.0 nM, Study 1
  % inhibition of SMAD7 mRNA expression: 24%
Human SMAD7 mRNA [5]; 2220 nM, Study 2
  % inhibition of SMAD7 mRNA expression: 23%
Human SMAD7 mRNA [5]; 5000.0 nM, Study 1
  % inhibition of SMAD7 mRNA expression: 55%
Human SMAD7 mRNA [5]; 6670.0 nM, Study 2
  % inhibition of SMAD7 mRNA expression: 23%
Human SMAD7 mRNA [5]; 20000.0 nM, Study 1
  % inhibition of SMAD7 mRNA expression: 75%
Human SMAD7 mRNA [5]; 20000.0 nM, Study 2
  % inhibition of SMAD7 mRNA expression: 22%
Human SMAD7 mRNA [5]; Study 1 (312.5-20000 nM)
  IC50: 4 µM
Human SMAD7 mRNA [5]; Study 2 (740-20000 nM)
  IC50: > 20 µM

## 771849 (antisense e[5mC]*eT*eA*eG*eG*d[5mC]*dT*dG*dG*dT*d[5mC]*dA*d[5mC]*dT*dT*e[5mC]*e[5mC]*eA*e[5mC]*eT) [compound 771849]
Human SMAD7 mRNA [3]; [6]
  % inhibition of SMAD7 mRNA expression: 66%
Human SMAD7 mRNA [5]; [7]
  % inhibition of SMAD7 mRNA expression: 25%
Human SMAD7 mRNA [5]; 1250.0 nM, Study 1
  % inhibition of SMAD7 mRNA expression: 0%
Human SMAD7 mRNA [5]; 5000.0 nM, Study 1
  % inhibition of SMAD7 mRNA expression: 10%
Human SMAD7 mRNA [5]; 20000.0 nM, Study 1
  % inhibition of SMAD7 mRNA expression: 35%
Human SMAD7 mRNA [5]; Study 1 (312.5-20000 nM)
  IC50: > 20 µM

## 771850 (antisense eT*e[5mC]*e[5mC]*e[5mC]*eA*d[5mC]*dT*dT*d[5mC]*dT*d[5mC]*d[5mC]*dT*d[5mC]*dT*eG*eG*e[5mC]*eT*eG) [compound 771850]
Human SMAD7 mRNA [3]; [6]
  % inhibition of SMAD7 mRNA expression: 58%
Human SMAD7 mRNA [5]; [7]
  % inhibition of SMAD7 mRNA expression: 0%
Human SMAD7 mRNA [5]; 1250.0 nM, Study 1
  % inhibition of SMAD7 mRNA expression: 8%
Human SMAD7 mRNA [5]; 5000.0 nM, Study 1
  % inhibition of SMAD7 mRNA expression: 20%
Human SMAD7 mRNA [5]; 20000.0 nM, Study 1
  % inhibition of SMAD7 mRNA expression: 44%
Human SMAD7 mRNA [5]; Study 1 (312.5-20000 nM)
  IC50: > 20 µM

## 771869 (antisense eA*eG*e[5mC]*e[5mC]*eA*dA*dG*dT*dG*dT*d[5mC]*d[5mC]*dA*dT*d[5mC]*eA*eA*eG*e[5mC]*eA) [compound 771869]
Human SMAD7 mRNA [3]; electroporation, 15,000 nM, approximately 24 hours, relative to untreated control cells, gapmers targeting SEQ ID NO: 1 and 2
  % inhibition of SMAD7 mRNA expression: 62%
Human SMAD7 mRNA [5]; [7]
  % inhibition of SMAD7 mRNA expression: 10%
Human SMAD7 mRNA [5]; 1250.0 nM, Study 1
  % inhibition of SMAD7 mRNA expression: 0%
Human SMAD7 mRNA [5]; 5000.0 nM, Study 1
  % inhibition of SMAD7 mRNA expression: 24%
Human SMAD7 mRNA [5]; 20000.0 nM, Study 1
  % inhibition of SMAD7 mRNA expression: 43%
Human SMAD7 mRNA [5]; Study 1 (312.5-20000 nM)
  IC50: > 20 µM
